Measured values reported in US11634417B2 (Array BioPharma Inc., priority 2019, dated 2023).
Where two headings read alike, the source gives them in different places.

Experiments:
[1] = test system: ERK1/2 (Thr202/Tyr204) phosphorylation in KYSE520 cells; experiment: Cellular Phospho-p44/42 MAPK (Erk1/2) (Thr202/Tyr204) assay, In-Cell Western; format: cell-based; conditions: Homo sapiens
Description: Inhibition of ERK1/2 (Thr202/Tyr204) phosphorylation was determined by the following cellular assay, which comprises incubating cells with a compound for 1 hour and quantifying pERK signal by In-Cell Western on fixed cells and normalizing to GAPDH signal. KYSE520 cells were obtained from DSMZ and grown in RPMI supplemented with 10% fetal bovine serum, penicillin/streptomycin, 2 mM L-alanyl-L-glutamine dipeptide in 0.85% NaCl (Glutamax™), non-essential amino acids, and sodium pyruvate. Cells were plated in 96-well plates at 30,000 cells/well and allowed to attach overnight at 37° C./5% CO2. Cells were treated with compounds prepared as a 10-point, 1:3 dilution series (range: 20 μM-1 nM), with a final DMSO concentration of 0.5%. After 1 hour incubation, cells were fixed in 3.7% formaldehyde in Dulbecco's phosphate-buffered saline (“dPBS”) at room temperature for 20 minutes. Cells were then washed with dPBS and permeabilized in 100% MeOH at room temperature for 10 minutes. Following permeabilization, cells were washed in dPBS and incubated in LI-COR Blocking Buffer (LI-COR Biosciences, Cat #927-40000) for 1 hour or longer. Plates were then incubated with an antibody specific for the MEK-dependent ERK1/2 phosphorylation sites, threonine 202 and tyrosine 204 (Cell Signaling Technologies; Cat #9101), downstream of SHP2 in the MAP kinase signal transduction pathway, as well as GAPDH (Millipore; Cat #MAB374). pErk1/2 (Thr202/Tyr204) antibody was diluted in LI-COR blocking buffer containing 0.05% polysorbate-20 (Tween-20) at 1:250; GAPDH was diluted at 1:2,500. The plates were incubated overnight at 4° C. After washing with PBS/0.05% Tween-20, the cells were incubated with fluorescently-labeled secondary antibodies (Anti-rabbit-Alexa Flour680, Invitrogen Cat #A21109; Anti-mouse-IRDye800CW, Li-cor Bioscieces Cat #926-32210, both at 1:1000 dilution) for 1 hour. Cells were then washed, as above, and analyzed for fluorescence at both 680 nm and 800 nm wavelengths using the Aerius Infrared Imaging System (LI-COR Biosciences, Model 9250). Phosphorylated Erk1/2 ([…]) signal was normalized to GAPDH signal for each well. IC50 values were calculated from the normalized values using a 4-parameter fit in BioAssay software. The reported IC50 in Table 2 may be from a single assay or the mean of multiple assays.

full-length SHP2 = target: T1, full-length SHP2 (Homo sapiens, UniProt Q06124); experiment: SHP2 enzymatic assay (fluorescence intensity kinetic assay, DiFMUP hydrolysis); format: biochemical; conditions: 1 nM His6-tagged SHP2(2-527), 1 μM activating peptide, 50 μM DiFMUP; single assay or mean of multiple assays; read-out: Biological Example 1 IC50
T1 construct: 1 nM full-length SHP2 (His6-tagged SHP2(2-527), recombinantly expressed in E. coli and purified in-house); His6; made in house; host or cells: E. coli
T1 sequence (Q06124 2-527): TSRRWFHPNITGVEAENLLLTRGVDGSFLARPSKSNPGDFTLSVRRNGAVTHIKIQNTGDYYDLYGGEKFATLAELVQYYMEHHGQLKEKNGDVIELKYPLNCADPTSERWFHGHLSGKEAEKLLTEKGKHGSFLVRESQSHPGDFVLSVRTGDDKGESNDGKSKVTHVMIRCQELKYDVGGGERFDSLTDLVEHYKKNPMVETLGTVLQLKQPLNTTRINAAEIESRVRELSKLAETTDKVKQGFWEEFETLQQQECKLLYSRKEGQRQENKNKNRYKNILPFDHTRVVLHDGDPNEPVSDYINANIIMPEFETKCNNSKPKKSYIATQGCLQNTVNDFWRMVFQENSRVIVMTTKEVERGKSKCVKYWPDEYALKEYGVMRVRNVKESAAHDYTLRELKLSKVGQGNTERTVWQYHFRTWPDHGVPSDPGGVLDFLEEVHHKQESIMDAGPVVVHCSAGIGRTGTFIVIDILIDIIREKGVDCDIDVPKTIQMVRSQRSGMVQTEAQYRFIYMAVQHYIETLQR
Description: A fluorescence intensity kinetic assay was configured for full-length SHP2 that monitors the amount of 6,8-difluoro-7-hydroxy-4-methylcoumarin (“DiFMU”) formed upon hydrolysis of 6,8-difluoro-4-methylumbelliferyl phosphate (“DiFMUP”) by SHP2. […] Low control wells lacked enzyme. The assays were initiated by the addition of a mixture of SHP2 and the activating peptide, and following a 15 second mix on an orbital shaker, were read in kinetic mode for 15 minutes (30 seconds/cycle) at ambient temperature on a PerkinElmer EnVision microplate reader (kEx=355 nm, kEm=460 nm). Initial velocities (slopes of the tangents at t=0) were estimated from exponential fits to the slightly nonlinear progress curves and then were converted to percent of control (“POC”) using the following equation:
[formula] • Where: xmax Average Uninhibited Controls • Xmin Average Background A 4-parameter logistic model was the fit to the POC data for each compound. From that fit, the IC50 was estimated and is defined as the concentration of compound at which the curve crosses 50 POC.

[2] = KYSE-520, KYSE520 cells, 1 hour incubation, pERK signal normalized to GAPDH, single assay or mean of multiple assays, read-out: Biological Example 2 IC50
[3] = KYSE-520, 1 h, read-out: Biological Example 2 IC50 (nM)

Row | Compound | IC50 [1, 2] [nM] | IC50 (full-length SHP2) [nM] | IC50 [1, 3] [nM]
1 | Nc1nccc(Sc2cnc(N3CCC4(CC3)Cc3c(Cl)cccc3[C@@H]4N)nn2)c1Cl [Example 82, (R)-1′-(6-((2-amino-3-chloropyridin-4-yl)thio)-1,2,4-triazin-3-yl)-4-chloro-1,3-dihydrospiro[indene-2,4′-piperidin]-1-amine] | 541 | 205 | 
2 | Cc1nc2c(s1)[C@H](N)C1(CCN(c3ncc(Sc4ccnc(N)c4Cl)nn3)CC1)C2 [Example 57, (R)-1′-(6-((2-amino-3-chloropyridin-4-yl)thio)-1,2,4-triazin-3-yl)-2-methyl-4,6-dihydrospiro[cyclopenta[d]thiazole-5,4′-piperidin]-6-amine] | 139 | 643 | 
3 | CNc1nccc(Sc2cnc(N3CCC4(CC3)Cc3cc(C#N)ccc3[C@@H]4N)nn2)c1Cl (single isomer, unassigned) [Example 42] | 813 | 209 | 
4 | N[C@@H]1c2ccccc2CC12CCN(c1ncc(-c3cccc(Cl)c3)nn1)CC2 [Example 80, (S)-1′-(6-(3-chlorophenyl)-1,2,4-triazin-3-yl)-1,3-dihydrospiro[indene-2,4′-piperidin]-1-amine] | 2990 | 429 | 
5 | N[C@@H]1c2ccccc2CC12CCN(c1ncc(-c3ccccc3)nn1)CC2 [Example 79, (S)-1′-(6-phenyl-1,2,4-triazin-3-yl)-1,3-dihydrospiro[indene-2,4′-piperidin]-1-amine] | 697 | 84 | 
6 | CC1(N)CCCN(c2ncc(Sc3ccnc(N)c3Cl)nn2)CC1 (centres unmarked) [Example 10, 1-(6-((2-amino-3-chloropyridin-4-yl)thio)-1,2,4-triazin-3-yl)-4-methylazepan-4-amine] | 687 | 551 | 
7 | N[C@@H]1c2ccccc2CC12CCN(c1ncc(Cc3ccccc3)nn1)CC2 [Example 33, (S)-1′-(6-benzyl-1,2,4-triazin-3-yl)-1,3-dihydrospiro[indene-2,4′-piperidin]-1-amine] | 366 | 98 | 
8 | Nc1nccc(Sc2cnc(N3CCC4(CC3)Cc3ncc(Cl)cc3[C@H]4N)nn2)c1Cl [Example 65, (S)-1′-(6-((2-amino-3-chloropyridin-4-yl)thio)-1,2,4-triazin-3-yl)-3-chloro-5,7-dihydrospiro[cyclopenta[b]pyridine-6,4′-piperidin]-5-amine] | 81 | 64 | 
9 | Cn1ccc2c(Sc3cnc(N4CCC5(CC4)Cc4ccccc4[C@H]5N)nn3)ccnc21 [Example 73, (S)-1′-(6-((1-methyl-1H-pyrrolo[2,3-b]pyridin-4-yl)thio)-1,2,4-triazin-3-yl)-1,3-dihydrospiro[indene-2,4′-piperidin]-1-amine] | 6 | 32 | 
10 | Nc1nccc(Sc2cnc(N3CCC4(CC3)Oc3ncccc3[C@H]4N)nn2)c1Cl [Example 77] | 92 | 74 | 
11 | Cc1cccc2c1CC1(CCN(c3ncc(Sc4ccnc(N)c4Cl)nn3)CC1)[C@H]2N [Example 49, (R)-1′-(6-((2-amino-3-chloropyridin-4-yl)thio)-1,2,4-triazin-3-yl)-4-methyl-1,3-dihydrospiro[indene-2,4′-piperidin]-1-amine] | 126 | 157 | 
12 | CNc1nccc(Sc2cnc(N3CCC4(CC3)Cc3cc(C#N)ccc3[C@H]4N)nn2)c1Cl (single isomer, unassigned) [Example 41] | 19 | 79 | 
13 | Cc1ccc2c(c1)CC1(CCN(c3ncc(Sc4ccnc(N)c4Cl)nn3)CC1)[C@H]2N [Example 59, (R)-1′-(6-((2-amino-3-chloropyridin-4-yl)thio)-1,2,4-triazin-3-yl)-5-methyl-1,3-dihydrospiro[indene-2,4′-piperidin]-1-amine] | 170 | 118 | 
14 | COc1cc2c(cc1Cl)[C@H](N)C1(CCN(c3ncc(Sc4ccnc(N)c4Cl)nn3)CC1)C2 [Example 63, (R)-1′-(6-((2-amino-3-chloropyridin-4-yl)thio)-1,2,4-triazin-3-yl)-6-chloro-5-methoxy-1,3-dihydrospiro[indene-2,4′-piperidin]-1-amine] | 665 | 254 | 
15 | Nc1nccc(Sc2cnc(N3CCC4(CC3)Cc3c(Cl)cccc3[C@H]4N)nn2)c1Cl [Example 35, (S)-1′-(6-((2-amino-3-chloropyridin-4-yl)thio)-1,2,4-triazin-3-yl)-4-chloro-1,3-dihydrospiro[indene-2,4′-piperidin]-1-amine] | 9 | 26 | 
16 | Cc1nc(N2CCC3(CC2)CO[C@@H](C)[C@H]3N)nnc1Sc1ccnc(N)c1Cl [Example 4, (3S,4S)-8-(6-((2-amino-3-chloropyridin-4-yl)thio)-5-methyl-1,2,4-triazin-3-yl)-3-methyl-2-oxa-8-azaspiro[4.5]decan-4-amine] | 519 | 114 | 
17 | Cc1ccc2c(c1)[C@H](N)C1(CCN(c3ncc(Sc4ccnc(N)c4Cl)nn3)CC1)C2 [Example 47, (R)-1′-(6-((2-amino-3-chloropyridin-4-yl)thio)-1,2,4-triazin-3-yl)-6-methyl-1,3-dihydrospiro[indene-2,4′-piperidin]-1-amine] | 56 | 38 | 
18 | Nc1nccc(Sc2cnc(N3CCC4(CC3)Cc3ccccc3[C@@H]4N)nn2)c1Cl [Example 20, (R)-1′-(6-((2-amino-3-chloropyridin-4-yl)thio)-1,2,4-triazin-3-yl)-1,3-dihydrospiro[indene-2,4′-piperidin]-1-amine] |  |  | 206
19 | Nc1nccc(Sc2cnc(N3CCC4(CC3)Cc3ccccc3[C@H]4N)nn2)c1Cl [Example 6, (S)-1′-(6-((2-amino-3-chloropyridin-4-yl)thio)-1,2,4-triazin-3-yl)-1,3-dihydrospiro[indene-2,4′-piperidin]-1-amine] |  |  | 2
20 | [2H][C@]1(N)c2ccccc2CC12CCN(c1ncc(Sc3ccnc(N)c3Cl)nn1)CC2 [Example 75, (R)-1′-(6-((2-amino-3-chloropyridin-4-yl)thio)-1,2,4-triazin-3-yl)-1,3-dihydrospiro[indene-2,4′-piperidin]-1-d-1-amine] |  |  | 100
21 | [2H][C@@]1(N)c2ccccc2CC12CCN(c1ncc(Sc3ccnc(N)c3Cl)nn1)CC2 [Example 74, (S)-1′-(6-((2-amino-3-chloropyridin-4-yl)thio)-1,2,4-triazin-3-yl)-1,3-dihydrospiro[indene-2,4′-piperidin]-1-d-1-amine] |  |  | 1
